# What was measured:
# [1] = test system: HL60 (leukemia); test: In vitro cytotoxic activity MTT assay, HL60; type: cell-based; details: Homo sapiens, HL-60; cells exposed for 96 hours; read-out: Cytotoxicity activity IC50, HL60 (leukemia)
# Description: (§1) Compounds 1-16 were screened for their in vitro cytotoxic activity utilizing a 3-(4,5-dimethyl-thiazol-2-yl)-2,5-diphenyltetrazolium bromide (MTT) assay against selected cancer human cell lines consisting of PC3 (prostate), HCT116 (colon), A375 (melanoma), H1299 (lung), MIAPaCa-2 (pancreas), HL60 (leukemia), MCF7 (breast), MDA-MB-231 (breast) (T. Mosmann, J. Immunol. Meth., 1983, 65, 55-63). The cells were cultured at 37° C. in RMPI1640 medium supplemented with 10% fetal bovine serum, 50 IU/mL penicillin, and 50 μg/mL streptomycin in a 5% CO2 incubator. All cells were sub-cultured 3 times/week by trypsinisation. Viable cells were seeded and allowed to adhere for 12 hours before a test drug was added in 96-well plates at an initial density of 1.0×10^5 cells/mL. Tumor cell lines were separately exposed to various concentrations of the tested compounds followed by incubation at a temperature of 37° C. during 96 hours inside a medium of fresh RMPI 1640. Cells were subsequently incubated at 37° C. using MTT at 0.5 mg/mL during 4 hours. After removal of supernatant, formazan crystals were dissolved in isopropanol and the optical density was measured at 570 nm. CX-4945 was used as a positive control.
# [2] = test system: HCT116 (colon); test: In vitro cytotoxic activity MTT assay, HCT116; type: cell-based; details: Homo sapiens, HCT-116; cells exposed for 96 hours; read-out: Cytotoxicity activity IC50, HCT116 (colon)
# Description: as §1
# [3] = test system: MDA-MB-231 (breast); test: In vitro cytotoxic activity MTT assay, MDA-MB-231; type: cell-based; details: Homo sapiens, cells exposed for 96 hours, read-out: Cytotoxicity activity IC50, MDA-MB-231 (breast)
# Description: as §1
# [4] = test system: H1299 (lung); test: In vitro cytotoxic activity MTT assay, H1299; type: cell-based; details: Homo sapiens, NCI-H1299; cells exposed for 96 hours; read-out: Cytotoxicity activity IC50, H1299 (lung)
# Description: as §1
# [5] = target: T1, recombinant human CK2 (RRββ-holoenzyme) (Homo sapiens, UniProt P68400); test: CK2 Kinase Assay (33P-ATP, substrate peptide RRRDDDSDDD); type: biochemical; details: final ATP concentration 15 μM, 10 min at 30° C.; read-out: protein kinase CK2 IC50
# T1 construct: purchased Millipore
# T1 sequence (P68400 whole entry): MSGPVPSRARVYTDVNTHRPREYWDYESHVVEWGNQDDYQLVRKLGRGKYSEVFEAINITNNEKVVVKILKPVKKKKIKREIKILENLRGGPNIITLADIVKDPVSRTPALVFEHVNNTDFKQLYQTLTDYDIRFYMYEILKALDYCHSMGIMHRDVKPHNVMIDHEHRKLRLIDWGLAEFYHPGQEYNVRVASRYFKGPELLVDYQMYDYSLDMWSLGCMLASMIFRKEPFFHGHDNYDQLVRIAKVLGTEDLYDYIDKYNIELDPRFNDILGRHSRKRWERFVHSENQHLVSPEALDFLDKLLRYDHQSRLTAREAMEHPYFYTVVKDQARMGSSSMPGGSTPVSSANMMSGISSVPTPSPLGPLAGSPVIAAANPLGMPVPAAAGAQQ
# T1 sequence (P67870 whole entry partner): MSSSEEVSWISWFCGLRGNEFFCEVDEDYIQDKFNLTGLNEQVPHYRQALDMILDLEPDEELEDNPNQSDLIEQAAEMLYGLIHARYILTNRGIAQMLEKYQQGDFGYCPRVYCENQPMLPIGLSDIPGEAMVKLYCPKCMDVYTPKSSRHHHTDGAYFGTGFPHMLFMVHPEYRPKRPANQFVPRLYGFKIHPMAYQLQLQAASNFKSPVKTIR
# Description: CK2 Kinase Assay was conducted using the protocol as described in Pierre F. et al; J. Med. Chem. 2011, 54, 635-654. The tested compounds in aqueous solution were added at a volume of 10 μL to a reaction mixture comprising 10 μL of assay dilution buffer (ADB; 20 mM MOPS, pH 7.2, 25 mM β-glycerol phosphate, 5 mM EGTA, 1 mM sodium orthovanadate, and 1 mM dithiothreitol), 10 μL of substrate peptide (RRRDDDSDDD, dissolved in ADB at a concentration of 1 mM), 10 μL of recombinant human CK2 (RRββ-holoenzyme, 25 ng dissolved in ADB; Millipore). Reactions were initiated by the addition of 10 μL of ATP solution (90% 75 mMMgCl2, 75 μM ATP (final ATP concentration: 15 μM) dissolved in ADB; 10% [γ-33P] ATP (stock 1mCi/100 L; 3000 Ci/mmol (Perkin-Elmer) and maintained for 10 min at 30° C. The reactions were quenched with 100 μL of 0.75% phosphoric acid and then transferred to and filtered through a phosphor cellulose filter plate (Millipore). After washing each well five times with 0.75% phosphoric acid, the plate was dried under vacuum for 5 min and, following the addition of 15 μL of scintillation fluid to each well, the residual radioactivity was measured using a Wallac luminescence counter. The IC50 values were derived from eight concentrations of test inhibitors.
# [6] = test system: PC3 (prostate); test: In vitro cytotoxic activity MTT assay, PC3; type: cell-based; details: Homo sapiens; cells exposed for 96 hours; read-out: Cytotoxicity activity IC50, PC3 (prostate)
# Description: as §1
# [7] = test system: MIAPaCa-2 (pancreas); test: In vitro cytotoxic activity MTT assay, MIAPaCa-2; type: cell-based; details: Homo sapiens, MIA PaCa-2; cells exposed for 96 hours; read-out: Cytotoxicity activity IC50, MIAPaCa-2 (pancreas)
# Description: as §1
# [8] = test system: A375 (melanoma); test: In vitro cytotoxic activity MTT assay, A375; type: cell-based; details: Homo sapiens, A-375; cells exposed for 96 hours; read-out: Cytotoxicity activity IC50, A375 (melanoma)
# Description: as §1
# [9] = test system: MCF7 (breast); test: In vitro cytotoxic activity MTT assay, MCF7; type: cell-based; details: Homo sapiens, cells exposed for 96 hours, read-out: Cytotoxicity activity IC50, MCF7 (breast)
# Description: as §1
compound,measurement,setting,value
"O=C(O)c1nnn2c1nc(Nc1cccc(Cl)c1)c1ccncc12 [Compound 1, 5-((3-chlorophenyl)amino)pyrido[4,3-e][1,2,3]triazolo[1,5-a]pyrimidine-3-carboxylic acid]",IC50,[1],5.4 µM
same,IC50,[2],2.5 µM
same,IC50,[3],4.2 µM
same,IC50,[4],3.3 µM
same,IC50,[5],0.024 µM
same,IC50,[6],1.4 µM
same,IC50,[7],1.1 µM
same,IC50,[8],5.7 µM
same,IC50,[9],4.7 µM

# Reference: patent US12018026B1, “Pyrido[4,3-e][1,2,3]triazolo[1,5-a]pyrimidine as CK2 inhibitors” (KING FAISAL UNIVERSITY, priority 2024, dated 2024)
